# Reference: PubChem BioAssay AID1645866 (Buhrlage Lab, Dana-Farber Cancer Institute and Novartis …, 2021)
# The source made the active and inactive calls.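 How the source made its calls: active means in confirmatory dose-response testing, peak deubiquitinase inhibition of 30% or more; inactive means the rest.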
# Target: Ubiquitin carboxyl-terminal hydrolase 28 (Homo sapiens) (UniProt Q96RU2)
# Assay: Concentration-response biochemical assay confirming initial hits as inhibitors of ubiquitin-specific protease 28 (AID 1645866)
# Conditions: purified USP28, ubiquitin-rhodamine fluorescence, 30 min
# Ubiquitin carboxyl-terminal hydrolase 28 (Homo sapiens), sequence (Q96RU2 whole entry, looked up): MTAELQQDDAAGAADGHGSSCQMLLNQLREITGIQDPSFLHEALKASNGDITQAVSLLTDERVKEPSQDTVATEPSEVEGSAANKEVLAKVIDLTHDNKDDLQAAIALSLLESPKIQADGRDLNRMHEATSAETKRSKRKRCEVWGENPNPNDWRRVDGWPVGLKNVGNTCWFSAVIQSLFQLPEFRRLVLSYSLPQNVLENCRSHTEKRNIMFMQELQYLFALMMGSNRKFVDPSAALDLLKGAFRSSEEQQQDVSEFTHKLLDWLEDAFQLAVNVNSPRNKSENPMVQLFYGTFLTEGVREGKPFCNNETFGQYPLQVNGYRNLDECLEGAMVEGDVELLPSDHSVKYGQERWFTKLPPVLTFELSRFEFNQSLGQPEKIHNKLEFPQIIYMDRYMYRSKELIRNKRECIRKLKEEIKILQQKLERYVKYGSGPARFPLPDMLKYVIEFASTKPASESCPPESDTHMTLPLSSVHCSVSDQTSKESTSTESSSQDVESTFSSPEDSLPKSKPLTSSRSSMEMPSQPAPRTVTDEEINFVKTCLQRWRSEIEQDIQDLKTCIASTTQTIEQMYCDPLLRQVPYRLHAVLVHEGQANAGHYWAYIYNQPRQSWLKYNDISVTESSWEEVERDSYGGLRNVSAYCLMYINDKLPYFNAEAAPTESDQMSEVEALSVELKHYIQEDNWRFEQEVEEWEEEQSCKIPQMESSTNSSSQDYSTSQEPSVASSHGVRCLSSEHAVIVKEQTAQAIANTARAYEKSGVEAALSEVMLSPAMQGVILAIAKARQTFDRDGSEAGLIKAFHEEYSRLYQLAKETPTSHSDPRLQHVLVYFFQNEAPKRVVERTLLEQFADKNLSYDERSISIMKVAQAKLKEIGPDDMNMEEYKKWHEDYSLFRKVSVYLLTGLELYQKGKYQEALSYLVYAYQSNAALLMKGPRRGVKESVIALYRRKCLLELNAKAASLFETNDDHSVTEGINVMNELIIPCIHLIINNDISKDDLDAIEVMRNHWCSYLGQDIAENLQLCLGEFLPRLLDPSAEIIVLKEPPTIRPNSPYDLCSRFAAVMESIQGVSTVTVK
row,SMILES,IC50
1,CC(=O)N1Cc2ccccc2CC2(CCCN(CC3CCOCC3)C2)C1 (configuration not stated),> 50 µM (inactive)
2,COc1ccc2nc(NC(=O)C(CC(C)C)NS(=O)(=O)c3ccc4c(c3)CCN4C(C)=O)sc2c1 (configuration not stated),26 µM
3,CSc1nccc(-c2ccc(F)cc2)c1C#N,46.2 µM
4,O=c1[nH]c(-c2ccccn2)nc2c1CCN(Cc1cnn(-c3ccccc3)c1)C2,> 50 µM (inactive)
5,COc1ccc2nc3c(cc2c1)c(=O)n(C)c1c3c(=O)n(-c2ccccc2)c(=O)n1-c1ccccc1,> 50 µM (inactive)
6,COc1ccccc1S(=O)(=O)N1CC[C@@H]2CN(C)[C@@H]2C1,35.1 µM
7,O=C(CCc1nnc2n(Cc3ccc(F)cc3)c(=O)c3ccccc3n12)N1CCN(c2ccccn2)CC1,> 50 µM (inactive)
8,Cc1cc(C(=O)CSc2nc3ccccc3[nH]2)c(C)n1Cc1ccco1,36.2 µM
9,COC(=O)c1cc2c(ccn2C)n1CC(=O)NC1CCCC1,> 50 µM (inactive)
10,COc1ccc2c(c1)c(N1CCCC1=O)c(C(=O)NCc1cccc(OC)c1OC)n2C,> 50 µM (inactive)
11,COc1ccc(CNC(=O)C(C)n2nc(-c3ccco3)c(-c3cc(C)no3)cc2=O)cc1 (configuration not stated),26.4 µM
12,Cc1ccc(-c2nc(-c3cccs3)cc(C(F)(F)F)c2C#N)cc1,> 50 µM (inactive)
13,COc1cccc(-n2c(=O)[nH]c3c(C(N)=O)nc(-c4ccc(OCc5ccccc5)cc4)nc32)c1,> 50 µM (inactive)
14,Cc1ccc2nc(CNC(=O)c3ccccc3-c3nc(-c4ccc(F)cc4)no3)[nH]c2c1,39 µM
15,COc1cc(O)c2c(c1)C1=CC(=O)C(O)=C[C@]1(C)OC2=O,30.1 µM
16,Oc1ccc(-c2nc3cnccn3c2NCCc2ccccc2)c(O)c1,> 50 µM (inactive)
17,Cn1nccc1C(=O)N1CCCCC1c1ncc(Cc2ccc(Cl)cc2)o1 (configuration not stated),> 50 µM (inactive)
18,COc1cccc(NC(=O)C2C3C=CC4(O3)C2C(=O)N(CCc2ccccc2Cl)C4C(=O)NC2CCCCC2)c1 (configuration not stated),26.1 µM
19,CC(C)(C)c1cc(CCC(=O)Nc2c3c(nc4c2CCC4)CCCC3)cc(C(C)(C)C)c1O,> 50 µM (inactive)
20,O=C1/C(=C/c2cn(-c3ccccc3)nc2-c2ccc3c(c2)OCCO3)Cc2ccccc21,> 50 µM (inactive)
21,Cc1cc(=O)n(C)c2c(O)c3c(cc12)c(C)cc(=O)n3C,43.9 µM
22,CC(=O)c1ccc(NC(=O)CC2C(=O)Nc3nc4ccccc4n32)cc1 (configuration not stated),27.3 µM
23,Cc1cc(O)c(=O)cc2c1C[C@H]1CC(C)(C)/C=C/C[C@@]3(C)Oc4cc(=O)c(O)cc(C)c4C[C@@H]3C[C@H](O)[C@]1(C)O2,> 50 µM (inactive)
24,O=C(CSc1nnnn1-c1ccccc1)Nc1ccccc1,39.8 µM
25,CCc1nnc(NC(=O)c2nnn(-c3ccccc3Cl)c2C)s1,28.5 µM
26,CC(C)(C)C(=O)[C@@H]1[C@@H](C(=O)c2ccc3c(c2)OCO3)[C@@]2(C(=O)Nc3ccccc32)[C@H]2c3ccccc3C=CN12,44.5 µM

row,SMILES,IC50
1,O=C(COc1ccc2oc3c(c2c1)CCCC3)Nc1ccccn1,24.9 µM
2,Cc1nnc(Sc2cc(C(=O)NCCN3CCCC3)c3ccccc3n2)s1,> 50 µM (inactive)
3,c1ccc2c(c1)CCc1c-2nc2ccccc2c1N1CCOCC1,> 50 µM (inactive)
4,Cc1cc(C(=O)N2CCOCC2)c(C)n1-c1ccc(O)cc1,41.7 µM
5,Cc1cn[nH]c1C1COCCN1C(=O)c1ccc2ncccc2c1 (configuration not stated),> 50 µM (inactive)
6,CC(=O)N1CCc2cc(S(=O)(=O)NCc3ccc(C)cc3)ccc21,> 50 µM (inactive)
7,COc1ccc(-c2cc3nc(C)cc(Nc4ccc(F)cc4)n3n2)cc1OC,> 50 µM (inactive)
8,COc1ccc(NC(=O)CN2C(=O)c3ccccc3Sc3ccc(C(=O)N4CCCC4)cc32)cc1OC,34.2 µM
9,CC1=C(C)C(N(c2ccccc2)c2ccccc2)N(CCC(C)C)C1=O (configuration not stated),24.9 µM
10,CCCc1cc(=O)n2[nH]c(COc3ccccc3)c(-c3ccccc3)c2n1,28.8 µM
11,COc1cccc2c1NC(=O)C21CCN(C(=O)Nc2cccc3ccccc23)CC1,> 50 µM (inactive)
12,COc1cccc(-c2cc(=O)[nH]c(Nc3nc(C)c4ccccc4n3)n2)c1,25.9 µM
13,CN1C(=O)COc2ccc(NC(=O)c3cc(-c4ccccc4)on3)cc21,> 50 µM (inactive)
14,O=C(Nc1ccc2nccnc2c1)c1cccc(C(F)(F)F)c1,33.6 µM
15,Cc1csc2ncc(C(=O)N3CCN(c4ccccc4F)CC3)c(=O)n12,> 50 µM (inactive)
16,O=C(CSc1nnc(CNC(=O)c2ccccc2F)o1)Nc1ccc(OC(F)(F)F)cc1,28.9 µM
17,CN(C)S(=O)(=O)N1CCCC2(C1)Nc1cccnc1NC2=NC1CCCC1 (configuration not stated),> 50 µM (inactive)
18,COc1cc(Cl)ccc1Oc1ncnc2sc(C)c(C)c12,> 50 µM (inactive)
19,COc1cccc(-c2nc3cnccn3c2NCc2ccc3c(c2)OCO3)c1,> 50 µM (inactive)
20,N#Cc1ccccc1Cn1c(=O)n(CCCCC(=O)NCc2ccco2)c(=O)c2ccccc21,36.6 µM
21,COc1ccc(NC(=O)c2nc3n(n2)-c2ccccc2S(=O)(=O)N3)cn1,> 50 µM (inactive)
22,COc1cc(OC)c2c(c1)C(=O)C1=C(COC(C)(O)C1)C2=O (configuration not stated),> 50 µM (inactive)
23,Cc1oc(C2CC2)cc1C(=O)N1CCC2(CC1)CC1(CO2)Nc2ccccc2-n2cccc21 (configuration not stated),> 50 µM (inactive)
24,COc1ccc(Cl)cc1-n1nnc(C(=O)N2CCc3ccccc3C2)c1C,> 50 µM (inactive)
25,COc1ccc2cc1Oc1cc(ccc1OC)C(O)C13SSC4(C(=O)N1C)C(O)C1=COC=CC(OC2=O)C1N4C3=O (configuration not stated),> 50 µM (inactive)

# More lines, in order of falling IC50, values ahead:
row,IC50,SMILES
1,24.7 µM,Cc1ccc2[nH]c(=O)c(CN(CC3CCCO3)S(=O)(=O)c3ccccc3)cc2c1 (configuration not stated)
2,24.5 µM,O=C(CNC(=O)c1cccc(F)c1)Nc1nc2ccccc2[nH]1
3,24.4 µM,O=C(Nc1ccc(F)cc1F)c1csc(-c2ccccc2)n1
4,24.1 µM,COc1ccc2[nH]cc(S(=O)(=O)c3ccc(C)c(F)c3)c(=O)c2c1
5,23.7 µM,Cn1c(CCNC(=O)c2[nH]nc3c2CCc2ccccc2-3)nc2ccccc21
6,23 µM,CCOc1ccc(C(=O)Cn2c(=O)n(CC3CCCO3)c(=O)c3cc(OC)c(OC)cc32)cc1Cl (configuration not stated)
7,22.4 µM,O=C(COc1ccc(Cl)cc1)Nc1noc(-c2ccccc2)n1
8,21.9 µM,Cc1nc(N2CCCC2)ncc1-c1cc(=O)[nH]c(N2CCc3ccccc3C2)n1
9,21.9 µM,Cc1ccnc(NC(=O)c2ccn(COc3ccc(Cl)cc3)n2)c1
10,21.7 µM,O=C(NCc1ccc(Br)cc1)c1ccc(-c2cccnc2)nc1
11,21.3 µM,CC1(C(=O)NC2CCCC2)Cn2c(cc3ccccc32)C(=O)N1c1ccc(F)cc1 (configuration not stated)
12,21 µM,Cc1nn(-c2ccc([N+](=O)[O-])cc2)c(C)c1-c1nc2ccccc2[nH]1
13,20.3 µM,CO[C@H]1CC[C@H](O)c2c1oc1c3c4c(c(O)c1c2=O)-c1c(cc2c(Cl)c(C)n(N)c(=O)c2c1O)C[C@@H]4OCO3
14,19.6 µM,COCCNC(=O)c1ccc(-c2ccc(N3CCCCC3)nc2)cc1
15,19.2 µM,CC(=O)Nc1ccc(S(=O)(=O)NCc2ccc(C(=O)NCc3ccc(C)cc3)cc2)cc1
16,18.9 µM,COc1ccc(NC(=O)CN2C(=O)c3ccccc3Sc3ccc(C(=O)N4CCCC4)cc32)c(OC)c1
17,18.8 µM,CC1Cc2ccccc2N1C(=O)Cn1c(=O)cc(O)c2ccccc21 (configuration not stated)
18,18.7 µM,CCCC(=O)c1c[nH]c(C(=O)NCc2ccc(F)cc2)c1
19,18.4 µM,O=C1Oc2nc3ccccc3cc2CN1Cc1ccco1
20,17.6 µM,O=C(Nc1ncc2c(n1)-c1ccccc1CC2)C1CC1
21,17.5 µM,COc1ccc(NC(=O)CSc2nnc(Cc3cccc4ccccc34)n2C)cc1
22,17.2 µM,Cc1cc(C)c2sc(N(CCCn3ccnc3)C(=O)Cc3ccccc3)nc2c1
23,15.9 µM,O=C(Nc1cc(Cl)cc(Cl)c1)c1csnn1
24,15.5 µM,COc1ccc(-c2nc(SCC(=O)Nc3ccc(C(C)=O)cc3)n[nH]2)cc1
25,13.5 µM,CN(C)c1cccc(C(=O)Nc2cc(-c3cccnc3)no2)c1
26,13 µM,Cc1ccc(Cn2c(=O)n(CCC(=O)NCCc3ccccc3)c(=O)c3ccccc32)cc1

row,IC50,SMILES
1,12.1 µM,COc1ccc(/C=C/C(=O)Nc2c3c(nc4c2CCC4)CCCC3)cc1
2,11.6 µM,COc1ccc(NC(=O)c2nnn(-c3ccccc3)c2C)cc1OC
3,11 µM,CCn1cc2c(n1)c(=O)n(Cc1ccc(C)cc1)c(=O)n2CC(=O)Nc1ccc(F)cc1
4,7.45 µM,Cc1ccccc1C(=O)c1ccc(C(=O)NC2CCCCCC2)[nH]1
5,6.98 µM,COc1cc(OC)cc(-n2c(=O)c3sccc3n(CC(=O)Nc3ccc(C)cc3)c2=O)c1
6,6.12 µM,COc1cc(N)c(Cl)cc1C(=O)OCC(=O)c1ccc2c(c1)OCCO2
7,5.97 µM,N#Cc1ccccc1OCc1csc(-c2ccccc2)n1
8,5.05 µM,Cc1ccc(S(=O)(=O)N2CCCCC2)cc1NC(=O)Cc1cccc(F)c1
9,4.94 µM,Cc1cc2nc(/C=C/c3ccccc3)n(Cc3cccc(F)c3)c2cc1C
10,4.46 µM,O=C1NC(=O)/C(=C/c2ccc(OC(=O)c3ccc(Cl)cc3Cl)cc2)N1
11,4.04 µM,COc1cccc(NC(=O)Nc2ccc(NC(C)=O)cc2)c1
12,3.69 µM,Cc1cc(C)n(-c2cccc(C(=O)Nc3ccc4c(c3)CCN4S(C)(=O)=O)c2)n1
13,3.13 µM,COc1cccc(NC(=O)Nc2ccc3nc4n(c(=O)c3c2)CCCC4)c1
14,3.11 µM,COc1ccc(NC(=O)CNC(=O)c2ccc3nc(-n4cccc4)sc3c2)cc1
15,3.08 µM,O=C1CC(c2ccco2)Cc2[nH]c(=O)c(C(=O)Nc3ccc(Cl)cc3)cc21 (configuration not stated)
16,2.47 µM,O=C(/C=C/c1ccc(F)cc1)Nc1ccc2c(c1)OCCO2
17,2.18 µM,CCCCCCCc1cc(O)cc(OC(=O)c2c(CCCCCCC)cc(O)cc2O[C@H]2O[C@H](C(O)CO)[C@@H](O)[C@@H]2O)c1 (some centres not stated)
18,2.07 µM,Cc1ccc(NC(=O)c2cnc3c(c2)c(=O)n(C)c(=O)n3C)cc1
19,1.94 µM,O=C(CCCn1c(=O)c2ccccc2n(CC(=O)NCc2ccccc2Cl)c1=O)NCc1ccc2c(c1)OCO2
20,1.93 µM,O=C(Nc1nc2ccccc2s1)c1ccc2c(c1)C(=O)N(Cc1cccnc1)C2=O
21,1.53 µM,O=C(Nc1ccc(-c2cn3ccsc3n2)cc1)c1ccc(Cl)c([N+](=O)[O-])c1
22,1.49 µM,Cc1cc(NC(=O)c2nnn(-c3ccccc3Cl)c2C)no1
23,0.655 µM,COc1ccc(CCNC(=O)c2noc3c2CCc2sccc2-3)cc1OC
24,0.36 µM,O=C(OCc1cccc(Cl)c1)c1ccc2ccccc2n1
25,0.0687 µM,O=C(NCc1cccnc1)C1CCN(c2cnc(N3CCCCCC3)nc2)CC1
